Assay results as given in PubChem BioAssay (NCI).
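A five-concentration, 48-hour dose response in 96-well plates underlies each endpoint, interpolated linearly between surrounding concentrations. At the GI50, growth is halved. TGI is the concentration that stops growth completely.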

Key:
Experiment in all cases: NCI-60 cell line screen, 48 h
[1] = test system: MCF7 breast
[2] = test system: A549 NSCLC
[3] = test system: NCI-H460 lung
[4] = test system: OVCAR-4 ovarian
[5] = test system: KM12 colon
[6] = test system: DU-145 prostate
[7] = test system: HOP-62 NSCLC
[8] = test system: RPMI-8226 leukemia
[9] = test system: UACC-62 melanoma
[10] = test system: HCC-2998 colon
[11] = test system: SF-295 CNS
[12] = test system: HT29 colon
[13] = test system: UO-31 renal
[14] = test system: OVCAR-5 ovarian
[15] = test system: NCI/ADR-RES ovarian
[16] = test system: M14 melanoma
[17] = test system: COLO 205 colon
[18] = test system: MALME-3M melanoma
[19] = test system: SNB-75 CNS
[20] = test system: HL-60(TB) leukemia
[21] = test system: HCT-15 colon
[22] = test system: OVCAR-8 ovarian
[23] = test system: CAKI-1 renal
[24] = test system: SK-OV-3 ovarian
[25] = test system: MDA-MB-468 breast
[26] = test system: RXF 393 renal
[27] = test system: HOP-92 NSCLC
[28] = test system: TK-10 renal
[29] = test system: IGROV1 ovarian
[30] = test system: SF-539 CNS
[31] = test system: NCI-H522 lung
[32] = test system: T-47D breast
[33] = test system: MDA-MB-231 breast
[34] = test system: EKVX NSCLC
[35] = test system: OVCAR-3 ovarian
[36] = test system: LOX IMVI melanoma
[37] = test system: SK-MEL-28 melanoma
[38] = test system: 786-0 renal
[39] = test system: CCRF-CEM leukemia
[40] = test system: U251 CNS
[41] = test system: ACHN renal
[42] = test system: UACC-257 melanoma
[43] = test system: K-562 leukemia
[44] = test system: MOLT-4 leukemia
[45] = test system: SK-MEL-5 melanoma
[46] = test system: HCT-116 colon
[47] = test system: NCI-H23 lung
[48] = test system: SF-268 CNS
[49] = test system: SK-MEL-2 melanoma
[50] = test system: SW-620 colon
[51] = test system: SN12C renal
[52] = test system: A498 renal
[53] = test system: SNB-19 CNS
[54] = test system: MDA-MB-435
[55] = test system: SR leukemia
[56] = test system: HS 578T breast
[57] = test system: NCI-H226 lung
[58] = test system: BT-549 breast
[59] = test system: PC-3 prostate

O=C(N/N=C/c1ccc(Cl)cc1)c1ccc(OCc2nc3ccc(Cl)cc3[nH]2)cc1
GI50 [1]: 10 µM
TGI [1]: 23.2 µM
GI50 [2]: 12 µM
TGI [2]: 34.2 µM
GI50 [3]: 4.68 µM
TGI [3]: 16.8 µM
GI50 [4]: 15.5 µM
TGI [4]: 31.4 µM
GI50 [5]: 20.5 µM
TGI [5]: 66 µM
GI50 [6]: 10.8 µM
TGI [6]: 25.3 µM
GI50 [7]: 15.7 µM
TGI [7]: 31.6 µM
GI50 [8]: 16.6 µM
TGI [8]: > 100 µM
GI50 [9]: 12.6 µM
TGI [9]: 25.4 µM
GI50 [10]: 11.5 µM
TGI [10]: 25.8 µM
GI50 [11]: 12 µM
TGI [11]: 24.4 µM
GI50 [12]: 15.2 µM
TGI [12]: 45.5 µM
GI50 [13]: 13.1 µM
TGI [13]: 26.3 µM
GI50 [14]: 14.5 µM
TGI [14]: 32.7 µM
GI50 [15]: 15.9 µM
TGI [15]: 68 µM
GI50 [16]: 10.2 µM
TGI [16]: 25.3 µM
GI50 [17]: 15.3 µM
TGI [17]: 32.1 µM
GI50 [18]: 11.7 µM
TGI [18]: 24.5 µM
GI50 [19]: 5.23 µM
TGI [19]: 19.8 µM
GI50 [20]: 26.4 µM
TGI [20]: > 100 µM
GI50 [21]: 8.27 µM
TGI [21]: 21.9 µM
GI50 [22]: 18.1 µM
TGI [22]: 55.5 µM
GI50 [23]: 17 µM
TGI [23]: 34 µM
GI50 [24]: 16 µM
TGI [24]: 32.8 µM
GI50 [25]: 11.6 µM
TGI [25]: 24.4 µM
GI50 [26]: 10.5 µM
TGI [26]: 24.4 µM
GI50 [27]: 13.4 µM
TGI [27]: 30.8 µM
GI50 [28]: 19.5 µM
TGI [28]: 38.3 µM
GI50 [29]: 11.6 µM
TGI [29]: 24.2 µM
GI50 [30]: 16.6 µM
TGI [30]: 30.6 µM
GI50 [31]: 19.7 µM
TGI [31]: 41.6 µM
GI50 [32]: 19.3 µM
TGI [32]: 42.9 µM
GI50 [33]: 10.8 µM
TGI [33]: 23.2 µM
GI50 [34]: 14.9 µM
TGI [34]: 28.9 µM
GI50 [35]: 18 µM
TGI [35]: 42.3 µM
GI50 [36]: 6.22 µM
TGI [36]: 19.1 µM
GI50 [37]: 12.5 µM
TGI [37]: 25.3 µM
GI50 [38]: 4.34 µM
TGI [38]: 16.9 µM
GI50 [39]: 6.78 µM
TGI [39]: 37.1 µM
GI50 [40]: 14.2 µM
TGI [40]: 33.1 µM
GI50 [41]: 14.3 µM
TGI [41]: 27.8 µM
GI50 [42]: 21.1 µM
TGI [42]: 46.6 µM
GI50 [43]: 3.81 µM
TGI [43]: 21.3 µM
GI50 [44]: 7.51 µM
TGI [44]: 27.3 µM
GI50 [45]: 15.1 µM
TGI [45]: 30.1 µM
GI50 [46]: 4.46 µM
TGI [46]: 19.2 µM
GI50 [47]: 6.59 µM
TGI [47]: 19.7 µM
GI50 [48]: 21.2 µM
TGI [48]: 53.5 µM
GI50 [49]: 18.6 µM
TGI [49]: 40 µM
GI50 [50]: 6.79 µM
TGI [50]: 23 µM
GI50 [51]: 12.7 µM
TGI [51]: 25.8 µM
GI50 [52]: 21.4 µM
TGI [52]: 38.4 µM
GI50 [53]: 15.4 µM
TGI [53]: 29.5 µM
GI50 [54]: 14.6 µM
TGI [54]: 31 µM
GI50 [55]: 0.62 µM
TGI [55]: > 100 µM
GI50 [56]: 11.2 µM
TGI [56]: 50.9 µM
GI50 [57]: 14.1 µM
TGI [57]: 30.2 µM
GI50 [58]: 19.5 µM
TGI [58]: 41.6 µM
GI50 [59]: 7.48 µM
TGI [59]: 24.9 µM
